Laboratory results reported in patent publication US11498899B2, “Nitrone herbicides” (FMC Corporation, priority 2016, dated 2022).

Legend:
[1] = tested on: barnyardgrass (Echinochloa crus-galli); test: Test A preemergence, visual injury rating 0-100 (0 no effect, 100 complete control); format: in vivo
[2] = tested on: foxtail, giant (giant foxtail, Setaria faberii); test: Test A preemergence, visual injury rating 0-100; format: in vivo
kochia (Kochia scoparia) [3] = test: Test A preemergence, visual injury rating 0-100; format: in vivo
[4] = tested on: pigweed (Amaranthus retroflexus); test: Test A preemergence, visual injury rating 0-100; format: in vivo
[5] = tested on: ragweed (common ragweed, Ambrosia elatior); test: Test A preemergence, visual injury rating 0-100; format: in vivo
[6] = tested on: ryegrass, Italian (Italian ryegrass, Lolium multiflorum); test: Test A preemergence, visual injury rating 0-100; format: in vivo
[7] = tested on: barnyardgrass (Echinochloa crus-galli); test: Test A postemergence, visual injury rating 0-100; format: in vivo; conditions: 0 to 100 scale
[8] = tested on: blackgrass (Alopecurus myosuroides); test: Test A postemergence, visual injury rating 0-100; format: in vivo; conditions: 0 to 100 scale
corn (Zea mays) = test: Test A postemergence, visual injury rating 0-100; format: in vivo; conditions: 0 to 100 scale
[9] = tested on: foxtail, giant (giant foxtail, Setaria faberii); test: Test A postemergence, visual injury rating 0-100; format: in vivo; conditions: 0 to 100 scale
[10] = tested on: galium (catchweed bedstraw, Galium aparine); test: Test A postemergence, visual injury rating 0-100; format: in vivo; conditions: 0 to 100 scale
kochia (Kochia scoparia) [11] = test: Test A postemergence, visual injury rating 0-100; format: in vivo; conditions: 0 to 100 scale
[12] = tested on: pigweed (Amaranthus retroflexus); test: Test A postemergence, visual injury rating 0-100; format: in vivo; conditions: 0 to 100 scale
[13] = tested on: ragweed (common ragweed, Ambrosia elatior); test: Test A postemergence, visual injury rating 0-100; format: in vivo; conditions: 0 to 100 scale
[14] = tested on: ryegrass, Italian (Italian ryegrass, Lolium multiflorum); test: Test A postemergence, visual injury rating 0-100; format: in vivo; conditions: 0 to 100 scale
[15] = tested on: wheat (Triticum aestivum); test: Test A postemergence, visual injury rating 0-100; format: in vivo; conditions: 0 to 100 scale
[16] = tested on: ducksalad (Heteranthera limosa); test: Test B flooded paddy test, visual rating 0-100; conditions: Flood, 250 g ai/ha, applied to paddy water, rated after 13 to 15 days
[17] = tested on: barnyardgrass (Echinochloa crus-galli); test: Test B flooded paddy test, visual rating 0-100; conditions: Flood, 250 g ai/ha, applied to paddy water, rated after 13 to 15 days
rice (Oryza sativa) = test: Test B flooded paddy test, visual rating 0-100 (0 no effect, 100 complete control); conditions: Flood, 250 g ai/ha, applied to paddy water, rated after 13 to 15 days

SMILES | Barnyardgrass plant response rating (0 to 100 scale) ([1]; 125 g ai/ha) | Barnyardgrass plant response rating (0 to 100 scale) ([1]; 500 g ai/ha) | Foxtail, Giant plant response rating (0 to 100 scale) ([2]; 125 g ai/ha) | Foxtail, Giant plant response rating (0 to 100 scale) ([2]; 500 g ai/ha) | Kochia plant response rating (0 to 100 scale) (kochia (Kochia scoparia) [3]; 125 g ai/ha) | Kochia plant response rating (0 to 100 scale) (kochia (Kochia scoparia) [3]; 500 g ai/ha) | Pigweed plant response rating (0 to 100 scale) ([4]; 125 g ai/ha) | Pigweed plant response rating (0 to 100 scale) ([4]; 500 g ai/ha) | Ragweed plant response rating (0 to 100 scale) ([5]; 125 g ai/ha) | Ragweed plant response rating (0 to 100 scale) ([5]; 500 g ai/ha) | Ryegrass, Italian plant response rating (0 to 100 scale) ([6]; 125 g ai/ha) | Ryegrass, Italian plant response rating (0 to 100 scale) ([6]; 500 g ai/ha) | Barnyardgrass plant response rating ([7]; 125 g ai/ha) | Barnyardgrass plant response rating ([7]; 500 g ai/ha) | Blackgrass plant response rating ([8]; 125 g ai/ha) | Blackgrass plant response rating ([8]; 500 g ai/ha) | Corn plant response rating (corn (Zea mays); 125 g ai/ha) | Corn plant response rating (corn (Zea mays); 500 g ai/ha) | Foxtail, Giant plant response rating ([9]; 125 g ai/ha) | Foxtail, Giant plant response rating ([9]; 500 g ai/ha) | also measured
COc1cc(OC)cc(C2CC(C)=[N+]([O-])C2C(=O)Nc2cccc(F)c2F)c1 (stereo not shown) [Compound 96] | 90 | 100 | 90 | 90 | 0 | 40 | 0 | 10 | 0 | 0 | 0 | 0 | 60 | 90 | 40 | 90 | 10 | 70 | 40 | 90 | Galium plant response rating ([10]; 125 g ai/ha): 0; Galium plant response rating ([10]; 500 g ai/ha): 20; Kochia plant response rating (kochia (Kochia scoparia) [11]; 125 g ai/ha): 0; Kochia plant response rating (kochia (Kochia scoparia) [11]; 500 g ai/ha): 0; Pigweed plant response rating ([12]; 125 g ai/ha): 0; Pigweed plant response rating ([12]; 500 g ai/ha): 0; Ragweed plant response rating ([13]; 125 g ai/ha): 0; Ragweed plant response rating ([13]; 500 g ai/ha): 30; Ryegrass, Italian plant response rating ([14]; 125 g ai/ha): 0; Ryegrass, Italian plant response rating ([14]; 500 g ai/ha): 60; Wheat plant response rating ([15]; 125 g ai/ha): 0; Wheat plant response rating ([15]; 500 g ai/ha): 10; Ducksalad plant response rating (0 to 100 scale) [16]: 0; Barnyardgrass plant response rating (0 to 100 scale) [17]: 0; Rice plant response rating (0 to 100 scale) (rice (Oryza sativa)): 0
CC1=[N+]([O-])C(C(=O)Nc2cccc(F)c2F)C(c2ccccc2)C1 (stereo not shown) [Compound 97] | 90 | 100 | 90 | 90 | 50 | 60 | 0 | 60 | 40 | 90 | 20 | 90 | 70 | 90 | 30 | 70 | 0 | 0 | 60 | 90 | Galium plant response rating ([10]; 125 g ai/ha): 30; Galium plant response rating ([10]; 500 g ai/ha): 50; Kochia plant response rating (kochia (Kochia scoparia) [11]; 125 g ai/ha): 0; Kochia plant response rating (kochia (Kochia scoparia) [11]; 500 g ai/ha): 50; Pigweed plant response rating ([12]; 125 g ai/ha): 0; Pigweed plant response rating ([12]; 500 g ai/ha): 0; Ragweed plant response rating ([13]; 125 g ai/ha): 0; Ragweed plant response rating ([13]; 500 g ai/ha): 20; Ryegrass, Italian plant response rating ([14]; 125 g ai/ha): 0; Ryegrass, Italian plant response rating ([14]; 500 g ai/ha): 50; Wheat plant response rating ([15]; 125 g ai/ha): 10; Wheat plant response rating ([15]; 500 g ai/ha): 30; Ducksalad plant response rating (0 to 100 scale) [16]: 100; Barnyardgrass plant response rating (0 to 100 scale) [17]: 70; Rice plant response rating (0 to 100 scale) (rice (Oryza sativa)): 0
CC1=[N+]([O-])C(C(=O)Nc2cccc(F)c2F)C(c2cc(C(F)(F)F)ccc2C)C1 (stereo not shown) [Compound 98] | 90 | 90 | 90 | 100 | 10 | 80 | 0 | 70 | 20 | 80 | 90 | 100 | 70 | 90 | 70 | 70 | 60 | 80 | 80 | 90 | Galium plant response rating ([10]; 125 g ai/ha): 0; Galium plant response rating ([10]; 500 g ai/ha): 40; Kochia plant response rating (kochia (Kochia scoparia) [11]; 125 g ai/ha): 0; Kochia plant response rating (kochia (Kochia scoparia) [11]; 500 g ai/ha): 0; Pigweed plant response rating ([12]; 125 g ai/ha): 0; Pigweed plant response rating ([12]; 500 g ai/ha): 30; Ragweed plant response rating ([13]; 125 g ai/ha): 30; Ragweed plant response rating ([13]; 500 g ai/ha): 30; Ryegrass, Italian plant response rating ([14]; 125 g ai/ha): 40; Ryegrass, Italian plant response rating ([14]; 500 g ai/ha): 70; Wheat plant response rating ([15]; 125 g ai/ha): 60; Wheat plant response rating ([15]; 500 g ai/ha): 70; Ducksalad plant response rating (0 to 100 scale) [16]: 100; Barnyardgrass plant response rating (0 to 100 scale) [17]: 55; Rice plant response rating (0 to 100 scale) (rice (Oryza sativa)): 0
CC1=[N+]([O-])C(C(=O)Nc2cccc(F)c2F)C(c2cccc(Cl)c2F)C1 (stereo not shown) [Compound 99] | 90 | 90 | 90 | 90 | 10 | 70 | 0 | 60 | 10 | 80 | 50 | 70 | 90 | 90 | 50 | 70 | 0 | 40 | 60 | 90 | Galium plant response rating ([10]; 125 g ai/ha): 30; Galium plant response rating ([10]; 500 g ai/ha): 50; Kochia plant response rating (kochia (Kochia scoparia) [11]; 125 g ai/ha): 0; Kochia plant response rating (kochia (Kochia scoparia) [11]; 500 g ai/ha): 50; Pigweed plant response rating ([12]; 125 g ai/ha): 0; Pigweed plant response rating ([12]; 500 g ai/ha): 40; Ragweed plant response rating ([13]; 125 g ai/ha): 0; Ragweed plant response rating ([13]; 500 g ai/ha): 30; Ryegrass, Italian plant response rating ([14]; 125 g ai/ha): 30; Ryegrass, Italian plant response rating ([14]; 500 g ai/ha): 70; Wheat plant response rating ([15]; 125 g ai/ha): 0; Wheat plant response rating ([15]; 500 g ai/ha): 50; Ducksalad plant response rating (0 to 100 scale) [16]: 85; Barnyardgrass plant response rating (0 to 100 scale) [17]: 60; Rice plant response rating (0 to 100 scale) (rice (Oryza sativa)): 0
COc1cc(C2CC(C)=[N+]([O-])C2C(=O)Nc2cccc(F)c2F)ccc1C(F)(F)F (stereo not shown) [Compound 100] | 90 | 90 | 90 | 90 | 40 | 80 | 0 | 60 | 0 | 80 | 0 | 90 | 70 | 90 | 30 | 70 | 30 | 70 | 60 | 90 | Galium plant response rating ([10]; 125 g ai/ha): 70; Galium plant response rating ([10]; 500 g ai/ha): 80; Kochia plant response rating (kochia (Kochia scoparia) [11]; 125 g ai/ha): 20; Kochia plant response rating (kochia (Kochia scoparia) [11]; 500 g ai/ha): 70; Pigweed plant response rating ([12]; 125 g ai/ha): 0; Pigweed plant response rating ([12]; 500 g ai/ha): 40; Ragweed plant response rating ([13]; 125 g ai/ha): 20; Ragweed plant response rating ([13]; 500 g ai/ha): 70; Ryegrass, Italian plant response rating ([14]; 125 g ai/ha): 0; Ryegrass, Italian plant response rating ([14]; 500 g ai/ha): 70; Wheat plant response rating ([15]; 125 g ai/ha): 20; Wheat plant response rating ([15]; 500 g ai/ha): 50; Ducksalad plant response rating (0 to 100 scale) [16]: 0; Barnyardgrass plant response rating (0 to 100 scale) [17]: 0; Rice plant response rating (0 to 100 scale) (rice (Oryza sativa)): 0
